Source: ChEMBL document CHEMBL5505996, “Discovery of novel osthole derivatives exerting anti-inflammatory effect on DSS-induced ulcerative colitis and LPS-induced acute lung injury in mice” (Eur J Med Chem, 2024)
Values after ≈ are worked out from the molar mass of the structure shown. Active and inactive are the calls of the source. The rule behind the calls is not given here.

Tests used:
[1] = Half life in male Sprague-Dawley rat at 10 mg/kg, po by UPLC-MS/MS analysis; assay type: ADME, organism-based; conditions: in vivo
[2] = target: Interleukin-1 receptor-associated kinase 1 (Homo sapiens) (UniProt P51617); test: Inhibition of IRAK1 (unknown origin) at 10 uM relative to control
[3] = test system: Mus musculus; test: Antiinflammatory activity against C57BL/6 mouse model of DSS induced ulcerative colitis assessed as reduction in IL-6 level in serum at 20 mg/kg, po administered daily for 10 days; assay type: functional, organism-based; conditions: time 10.0 day
[4] = Acute toxicity in ICR mouse assessed as reduction in body weight at 500 mg/kg, po measured daily for 10 days; assay type: organism-based; conditions: in vivo, 240 h, time 10 day
[5] = test system: Mus musculus; test: (§1) Antiinflammatory activity against C57BL/6 mouse model of LPS induced acute lung injury assessed as reduction in interstitial edema at 20 mg/kg, po administered every 12 hrs for 3 times followed by LPS stimulation for 6 hrs starting from 30 mins post last dose by H and E staining based analysis; assay type: functional, organism-based; conditions: time 42.5 hrs
[6] = test system: Mus musculus; test: Antiinflammatory activity against C57BL/6 mouse model of LPS induced acute lung injury assessed as reduction in IL-6 mRNA expression in lung at 20 mg/kg, po administered every 12 hrs for 3 times followed by LPS stimulation for 6 hrs starting from 30 mins post last dose by RT-qPCR analysis; assay type: functional, organism-based; conditions: time 42.5 hrs
[7] = test system: J774.A1; test: Antiinflammatory activity against LPS-induced mouse J774.A1 cells assessed as inhibition of TNF-alpha release pretreated for 30 mins followed by LPS stimulation and measured after 24 hrs by ELISA; assay type: functional, cell-based
[8] = test system: Mus musculus; test: Antiinflammatory activity against C57BL/6 mouse model of LPS induced acute lung injury assessed as reduction in total number of cells in BALF at 20 mg/kg, po administered every 12 hrs for 3 times followed by LPS stimulation for 6 hrs starting from 30 mins post last dose; assay type: functional, organism-based; conditions: time 42.5 hrs
[9] = test system: RAW264.7; test: Antiinflammatory activity against LPS-induced mouse RAW264.7 cells assessed as inhibition of IL-6 release pretreated for 30 mins followed by LPS stimulation and measured after 24 hrs by ELISA; assay type: functional, cell-based
[10] = test system: Mus musculus; test: (§2) Antiinflammatory activity against C57BL/6 mouse model of LPS induced acute lung injury assessed as reduction in IL-6 level in BALF at 20 mg/kg, po administered every 12 hrs for 3 times followed by LPS stimulation for 6 hrs starting from 30 mins post last dose by ELISA; assay type: functional, organism-based; conditions: time 42.5 hrs
[11] = test system: J774.A1; test: Inhibition of NFkappaB signaling pathway in LPS-induced mouse J774.A1 cells assessed as reduction in IkappaBalpha degradation pretreated for 2 hrs followed by LPS stimulation and measured after 30 mins by Western blot analysis; assay type: cell-based; conditions: time 2.5 hrs
[12] = test system: Mus musculus; test: Antiinflammatory activity against C57BL/6 mouse model of LPS induced acute lung injury assessed as reduction in IL-6 level in serum at 20 mg/kg, po administered every 12 hrs for 3 times followed by LPS stimulation for 6 hrs starting from 30 mins post last dose by ELISA; assay type: functional, organism-based; conditions: time 42.5 hrs
[13] = test system: RAW264.7; test: Potency index, ratio of osthole IC50 to test compound IC50 for antiinflammatory activity against LPS-induced mouse RAW264.7 cells assessed as inhibition of TNF-alpha release pretreated for 30 mins followed by LPS stimulation and measured after 24 hrs by ELISA; assay type: functional; conditions: time 24.5 hrs
[14] = test system: Mus musculus; test: Antiinflammatory activity against C57BL/6 mouse model of LPS induced acute lung injury assessed as reduction in TNF-alpha mRNA expression in lung at 20 mg/kg, po administered every 12 hrs for 3 times followed by LPS stimulation for 6 hrs starting from 30 mins post last dose by RT-qPCR analysis; assay type: functional, organism-based; conditions: time 42.5 hrs
[15] = test system: J774.A1; test: Antiinflammatory activity against LPS-induced mouse J774.A1 cells assessed as inhibition of IL-6 release pretreated for 30 mins followed by LPS stimulation and measured after 24 hrs by ELISA; assay type: functional, cell-based
[16] = test system: Mus musculus; test: as §1, with “thickening of alveolar septa” for “interstitial edema”; assay type: functional, organism-based; conditions: time 42.5 hrs
[17] = test system: J774.A1; test: Antiinflammatory activity against LPS-induced mouse J774.A1 cells assessed as inhibition of IL-6 release at 10 uM pretreated for 30 mins followed by LPS stimulation and measured after 24 hrs by ELISA relative to control; assay type: functional; conditions: time 24.5 hrs
[18] = test system: Mus musculus; test: Antiinflammatory activity against C57BL/6 mouse model of DSS induced ulcerative colitis assessed as protection against crypt necrosis at 20 mg/kg, po administered daily for 10 days by H and E staining based analysis; assay type: functional, organism-based; conditions: time 10.0 day
[19] = test system: Mus musculus; test: Antiinflammatory activity against C57BL/6 mouse model of DSS induced ulcerative colitis assessed as reversal of splenomegaly at 20 mg/kg, po administered daily for 10 days; assay type: functional, organism-based; conditions: time 10.0 day
[20] = test system: J774.A1; test: Cytotoxicity against mouse J774.A1 cells assessed as reduction in cell proliferation at 10 uM measured after 24 hrs by CCK-8 assay; assay type: toxicity, cell-based; conditions: j774.a1, 24 h
[21] = Aqueous solubility of compound in phosphate buffer at pH 7.4 measured after 24 hrs by HPLC analysis; assay type: physicochemical
[22] = test system: J774.A1; test: Inhibition of NFkappaB signaling pathway in LPS-induced mouse J774.A1 cells assessed as reduction in p65 phosphorylation pretreated for 2 hrs followed by LPS stimulation and measured after 30 mins by Western blot analysis; assay type: cell-based; conditions: time 2.5 hrs
[23] = test system: THP-1; test: Antiinflammatory activity against LPS-induced PMA-differentiated human THP-1 cells assessed as inhibition of IL-6 release pretreated for 30 mins followed by LPS stimulation and measured after 24 hrs by ELISA; assay type: functional, cell-based
[24] = test system: Mus musculus; test: Antiinflammatory activity against C57BL/6 mouse model of DSS induced ulcerative colitis assessed as reversal of shortened intestinal length due to fecal obstruction at 20 mg/kg, po administered daily for 10 days; assay type: functional, organism-based; conditions: time 10.0 day
[25] = Acute toxicity in ICR mouse assessed as pathological changes in lung at 500 mg/kg, po measured daily for 10 days by H and E staining based analysis; assay type: organism-based; conditions: in vivo, 240 h, time 10 day
[26] = Acute toxicity in ICR mouse assessed as effect on physiological status at 500 mg/kg, po measured daily for 10 days; assay type: organism-based; conditions: in vivo, 240 h, time 10 day
[27] = test system: Mus musculus; test: Antiinflammatory activity against C57BL/6 mouse model of DSS induced ulcerative colitis assessed as reduction in inflammatory cytokines infiltration in intestine at 20 mg/kg, po administered daily for 10 days by immunohistochemical staining based analysis; assay type: functional, organism-based; conditions: time 10.0 day
[28] = Acute toxicity in ICR mouse assessed as pathological changes in liver at 500 mg/kg, po measured daily for 10 days by H and E staining based analysis; assay type: organism-based; conditions: in vivo, 240 h, time 10 day
[29] = test system: J774.A1; test: Inhibition of MAPK signaling pathway in LPS-stimulated mouse J774.A1 cells assessed as reduction in JNK phosphorylation at 10 uM pretreated for 2 hrs followed by LPS stimulation and measured after 30 mins by Western blot analysis; assay type: cell-based; conditions: time 2.5 hrs
[30] = Acute toxicity in ICR mouse assessed as effect on daily activities at 500 mg/kg, po measured daily for 10 days; assay type: organism-based; conditions: in vivo, 240 h, time 10 day
[31] = test system: Mus musculus; test: Antiinflammatory activity against C57BL/6 mouse model of DSS induced ulcerative colitis assessed as reversal of splenomegaly at 100 mg/kg, po administered daily for 10 days; assay type: functional, organism-based; conditions: time 10.0 day
[32] = test system: Mus musculus; test: as §2, with “lung” for “BALF”, “immunohistochemical staining based analysis” for “ELISA”; assay type: functional, organism-based; conditions: time 42.5 hrs

Chain of Interleukin-1 receptor-associated kinase 1 (Homo sapiens) (P51617 whole entry, looked up): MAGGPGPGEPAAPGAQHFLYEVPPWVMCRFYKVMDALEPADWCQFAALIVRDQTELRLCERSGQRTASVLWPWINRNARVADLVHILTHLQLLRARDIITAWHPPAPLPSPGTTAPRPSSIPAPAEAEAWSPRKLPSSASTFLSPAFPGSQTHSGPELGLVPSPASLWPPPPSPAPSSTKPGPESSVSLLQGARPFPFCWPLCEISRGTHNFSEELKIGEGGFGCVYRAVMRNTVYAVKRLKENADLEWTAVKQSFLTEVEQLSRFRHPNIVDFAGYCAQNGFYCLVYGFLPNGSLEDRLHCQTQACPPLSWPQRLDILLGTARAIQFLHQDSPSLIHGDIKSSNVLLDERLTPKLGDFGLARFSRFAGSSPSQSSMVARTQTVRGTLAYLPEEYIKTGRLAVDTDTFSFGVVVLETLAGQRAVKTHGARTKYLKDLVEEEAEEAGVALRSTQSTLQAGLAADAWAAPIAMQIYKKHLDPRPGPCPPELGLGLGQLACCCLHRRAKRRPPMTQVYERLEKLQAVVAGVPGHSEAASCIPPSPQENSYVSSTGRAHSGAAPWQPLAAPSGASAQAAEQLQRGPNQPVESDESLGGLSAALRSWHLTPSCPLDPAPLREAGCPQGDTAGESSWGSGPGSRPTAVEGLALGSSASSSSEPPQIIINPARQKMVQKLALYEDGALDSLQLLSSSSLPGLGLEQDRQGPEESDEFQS

**Q.** For `CC(C)=CCc1c(OCCCCNCCN2CCOCC2)ccc2ccc(=O)oc12`, which half-life [1] is on record?
**A.** Its half-life is 10.7 h.

**Q.** And the inhibition [2]?
**A.** Its inhibition is 10.3%.

**Q.** What about the Activity [3] of the same compound?
**A.** Its Activity is “Active”.

**Q.** What about the Activity [4] of the same compound?
**A.** Its Activity is “Non-Toxic”.

**Q.** What about the Activity [5] of the same compound?
**A.** The Activity was “Active”.

**Q.** What about the Activity [6] of the same compound?
**A.** The Activity was “Active”.

**Q.** And the IC50 [7]?
**A.** The IC50 was 18.1 µM.

**Q.** What about the Activity [8] of the same compound?
**A.** The Activity was “Active”.

**Q.** And the IC50 [9]?
**A.** Its IC50 is 4.57 µM.

**Q.** And the Activity [10]?
**A.** The Activity was “Active”.

**Q.** What about the inhibition [11] of the same compound?
**A.** Its inhibition is “inactive”.

**Q.** And the Activity [12]?
**A.** The Activity was “Active”.

**Q.** And the “Ratio IC50” value [13]?
**A.** The value was 3.8.

**Q.** What about the Activity [14] of the same compound?
**A.** The Activity was “Active”.

**Q.** And the IC50 [15]?
**A.** Its IC50 is 4.23 µM.

**Q.** What about the Activity ([15]; time 24.5 hrs) of the same compound?
**A.** The Activity was “Dose-Dependent Effect”.

**Q.** And the Activity [16]?
**A.** Its Activity is “Active”.

**Q.** And the inhibition at 10 µM [17]?
**A.** The inhibition at 10 µM was 95%.

**Q.** And the Activity [18]?
**A.** Its Activity is “Active”.

**Q.** And the Activity [19]?
**A.** The Activity was “Active”.

**Q.** And the Activity [20]?
**A.** Its Activity is “Non-Toxic”.

**Q.** What about the solubility at 24 h [21] of the same compound?
**A.** Its solubility at 24 h is 340 µg/mL (≈ 820 µM).

**Q.** What about the inhibition [22] of the same compound?
**A.** The inhibition was “inactive”.

**Q.** What about the IC50 [23] of the same compound?
**A.** Its IC50 is 10.6 µM.

**Q.** What about the Activity [24] of the same compound?
**A.** The Activity was “Active”.

**Q.** And the Activity [25]?
**A.** Its Activity is “Non-Toxic”.

**Q.** What about the Activity [26] of the same compound?
**A.** Its Activity is “Non-Toxic”.

**Q.** What about the Activity [27] of the same compound?
**A.** Its Activity is “Active”.

**Q.** And the Activity [28]?
**A.** The Activity was “Non-Toxic”.

**Q.** And the inhibition [29]?
**A.** Its inhibition is “Active”.

**Q.** What about the Activity [30] of the same compound?
**A.** Its Activity is “Non-Toxic”.

**Q.** And the Activity [31]?
**A.** Its Activity is “Active”.

**Q.** And the Activity [32]?
**A.** The Activity was “Active”.
